Reference: patent publication US10513697B2, “CO2 profile cultivation” (Hoffmann-La Roche Inc., priority 2011, dated 2019)

Tests used:
[1] = tested on: control cell line in HyQ medium (Control HyQ, non-transfected CHO cell line); assay: Re-alkalinization experiment (pHi recovery after CO2 acid load, flow cytometry) in control cell line; type: cell-based, Chinese Hamster
Protocol: To examine the effect of hCAII expression on the cell internal pH value (pHi), the control cell line in HyQ medium and clone E11 were submitted to a short term acidification. This was achieved by mixing the cells with a CO2-containing solution and measuring the subsequent pHi recovery. […] A replicate of this experiment was performed with the carbonic anhydrase II inhibitor ethoxyzolamide and the results are presented in FIGS. 7(A) and 7(B). […] The following Table summarizes some of the characteristics of the tested cell lines.
pHi measurements were carried out by flow cytometry with the available pHi fluorescent indicator, Carboxy SNARF-1 AM (Molecular Probes Inc.). This dye is an acetoxymethyl (AM) ester that enter the cells readily and is hydrolyzed by non-specific esterases to yield the free fluorescent dye. SNARF-1 AM is very sensitive to pHi changes within the physiological range. It is excited between 488 nm and 530 nm and the fluorescence emission is monitored at two wavelengths, typically about 580 nm (FL2-H) and 640 nm (FL3-H). This is particularly interesting as the fluorescence emission wavelength ratio can be calculated foe a more accurate determination of the pHi. With the use of this ratiometric technique, a number of fluorescence measurement artifacts are eliminated, such as photobleaching, cell thickness and leakage and non-uniform loading of the indicator (SNARF® pH indicators, Product information, 2003, Molecular Probes Inc.). Herein the Pseudo-Null calibration method was used. […] A simplification can be considered if the calibration solutions are prepared in such a way that a concentration of weak base and a concentration of weak acid produce an equal but opposite change in pHi (i.e., pHa=pHb). The derived relationship for pHi determination is presented in Equation 10.11.
The regulation of the pHi was studied by flow cytometric analysis during intracellular acidification with bicarbonate. The kinetic of the transporters were examined. This test was made at physiological conditions. Therefore medium was used instead of buffer to account for influences of other medium components. To eliminate the activity of other cellular pHi-regulation systems, cells were pre-incubated in bicarbonate-free medium buffered with HEPES. […] This system consisting of two disposable 5 ml Luer-Lock syringes (B. Braun AG, Melsungen, Germany) connected by a short tubing and two Luer tubing connectors (Rotilabo®). These Luer connectors permitted the rapid and easy connection/disconnection of the 2 syringes.
Syringe A contained stained cells in bicarbonate-free production medium and syringe B production medium with 4.2 g/l NaHCO3 (corresponding to […] at pH 7.2). Both media contained 20 mM HEPES and were adjusted to pH 7.2 at 37° C. Acid-load was achieved by pressing bicarbonate-containing medium from syringe B into syringe A. A 5 ml syringe was pre-loaded with 22 μl of SNARF-1 AM (2 mM stock solution; Table 3). 1×10^6 cells, from the exponential phase, were harvested and washed once with 4 ml medium without bicarbonate. After which, the cell suspension was sucked (without air bubbles) into the pre-loaded fluorescence dye syringe, which was them closed with the Luer-stopper and gently mixed. […] The syringe B was discarded, syringe A was closed and after short mixing, the acid-loaded cells were analyzed by flow cytometry. Additionally, some samples were measured with the blood gas analyzer to determine the content of CO2 in medium during the experiment. […]

[2] = tested on: hCAII-expressing CHO cell clone E11; assay: Re-alkalinization experiment (pHi recovery after CO2 acid load, flow cytometry) in hCAII-expressing clone; type: cell-based, Chinese Hamster
Protocol: pHi measurements were carried out by flow cytometry with the available pHi fluorescent indicator, Carboxy SNARF-1 AM (Molecular Probes Inc.). This dye is an acetoxymethyl (AM) ester that enter the cells readily and is hydrolyzed by non-specific esterases to yield the free fluorescent dye. SNARF-1 AM is very sensitive to pHi changes within the physiological range. It is excited between 488 nm and 530 nm and the fluorescence emission is monitored at two wavelengths, typically about 580 nm (FL2-H) and 640 nm (FL3-H). This is particularly interesting as the fluorescence emission wavelength ratio can be calculated foe a more accurate determination of the pHi. […] Herein the Pseudo-Null calibration method was used. […] A simplification can be considered if the calibration solutions are prepared in such a way that a concentration of weak base and a concentration of weak acid produce an equal but opposite change in pHi (i.e., pHa=pHb). The derived relationship for pHi determination is presented in Equation 10.11.
Syringe A contained stained cells in bicarbonate-free production medium and syringe B production medium with 4.2 g/l NaHCO3 (corresponding to 25% CO2 at pH 7.2). Both media contained 20 mM HEPES and were adjusted to pH 7.2 at 37° C. Acid-load was achieved by pressing bicarbonate-containing medium from syringe B into syringe A. A 5 ml syringe was pre-loaded with 22 μl of SNARF-1 AM (2 mM stock solution; Table 3). 1×10^6 cells, from the exponential phase, were harvested and washed once with 4 ml medium without bicarbonate. After which, the cell suspension was sucked (without air bubbles) into the pre-loaded fluorescence dye syringe, which was them closed with the Luer-stopper and gently mixed. After a 25 min. period of incubation at 37° C. in the dark, with regularly mixing to avoid cell settling, followed dissolved gas and flow cytometric analysis. Three measurements of loaded cells in bicarbonate-free medium were made before acidification of cells cytoplasm. Afterwards, the syringe B was connected to syringe A and the double volume of NaHCO3-containing medium was added. The syringe B was discarded, syringe A was closed and after short mixing, the acid-loaded cells were analyzed by flow cytometry. Additionally, some samples were measured with the blood gas analyzer to determine the content of CO2 in medium during the experiment.
To test if the re-alkalinization effect was due to the hCAII-overexpression, the hCAII inhibitor ethoxyzolamide (ACTZ) was used. […]

CCOc1ccc2nc(S(N)(=O)=O)sc2c1 [ACTZ, ethoxyzolamide]
Steady state pHi ([1]; Control HyQ + ACTZ, 100 μM ethoxyzolamide in media, pHe 7.10): 7.02 | pHi (acid load) ([1]; Control HyQ + ACTZ, 100 μM ethoxyzolamide, about 9% CO2 acid load): 6.84 | pHi/min (5 min) ([1]; Control HyQ + ACTZ, 100 μM ethoxyzolamide, initial recovery rate of first 5 min after acid load): 0.049 pHi/min | decrease on the re-alkalinization rate ([1]; control cell line in HyQ medium, in the presence of the inhibitor): 30% | time after exposure to CO2-containing medium at which steady state pHi was exceeded ([1]; hCAII inhibited reaction, control cell line in HyQ medium (11 min. without inhibitor)): 5 min. | Steady state pHi ([2]; Clone E11 + ACTZ, 100 μM ethoxyzolamide in media, pHe 7.11): 6.87 | pHi (acid load) ([2]; Clone E11 + ACTZ, 100 μM ethoxyzolamide, about 9% CO2 acid load): 6.61 | pHi/min (5 min) ([2]; Clone E11 + ACTZ, 100 μM ethoxyzolamide, initial recovery rate of first 5 min after acid load): 0.057 pHi/min | decrease on the re-alkalinization rate ([2]; clone E11, in the presence of the inhibitor): 19% | time after exposure to CO2-containing medium at which steady state pHi was exceeded ([2]; hCAII inhibited reaction, clone E11 (8 min. without inhibitor)): 5 min.
